The text below walks through data of patent US8501734B2, “Medical intervention in haematological cancers” (Oncotyrol-Center for Personalized Cancer Medicine GmbH …, priority 2008, dated 2013).

Data set [1] relates to squamous cell carcinoma cells. To be noted: 50 μg/ml, 24 h; cited from earlier work.
Data set [2] has as its system multiple myeloma cell lines. As to the kind of experiment: Annexin V/PI apoptosis assay, multiple myeloma cell line panel. Particulars: 24 h. Type of data set: cell-based. As to the method:
(§1) After treatment adherent cells were trypsinized (as described before), and resuspended in corresponding full medium. Suspension cells or trypsinized adherent cells, supernatant and washing solution (1×PBS from washing before trypsinization) were pooled and then spun down (300 g for 3 min) washed in 2 ml and resuspended in 1000 of annexin V binding buffer and mixed with 2 μg/ml annexin V-Allophycocyanin (APC) (BD-Pharmingen, San Diego, Calif., USA) and 50 ng/ml of propidium iodide (PI; Sigma Aldrich). At least 10.000 cells were measured per sample using a Becton Dickinson FACSCalibur flow Cytometer (San Jose, Calif., USA). Percentage of Annexin V negative and PI negative cells were depicted in the figures. For the analysis of the pro-apoptotic activity of Imiquimod® in primary MM cells and non-malignant BMMCs, 5×10^5 cells BMMCs cells were treated with or without 40 μg/ml Imiquimod® for the indicated time periods. Cells were then harvested and washed twice with PBS. Detection of apoptotic cells was performed using the annexin V/PI assay according to manufacturers' instruction. Briefly, BMMCs were stained with a mixture of annexin V/FITC (Alexis Coorp., Laeufelfingen, Switzerland), propidium iodide (Sigma), anti-CD38-PE and anti-CD45-PC5 for 15 min at room temperature and immediately analyzed by flow cytometry. The percentages of viable cells (i.e. cells negative for annexin V/FITC and PI) within the MM (CD38^posCD45^low/absent) and non-MM fraction (CD38^neg/CD45^pos) were determined by flow cytometry.
(§2) Adherent cells were grown in 24-well plates to confluence and treated with 40 μg/ml Imiquimod® for 24 h. Cells were then trypsinized, suspended in full medium, stained for AnnexinV/PI and apoptosis was measured as described before. Suspension cells (250.000) were treated with 40 μg/ml Imiquimod® for 24 h, stained for Annexin/PI and apoptosis was measured as described above (Annexin V/Propidium Iodide apoptosis Assay).

Data set [3] deals with human epidermoid carcinoma cell line A431. As to the kind of experiment: Apoptosis induction in A431 cells. The format is cell-based. How it is done:
as §1, with “For the analysis of the pro-apoptotic activity of Imiquimod® in primary MM cells and non-malignant BMMCs, 5×10^5 cells BMMCs cells were treated with or without 40 μg/ml Imiquimod® for the indicated time periods. Cells were then harvested and washed twice with PBS. Detection of apoptotic cells was performed using the annexin V/PI assay according to manufacturers' instruction.” left out
(§3) Adherent cells were grown in 24-well plates to confluence and treated with 40 μg/ml Imiquimod® for 24 h. Cells were then trypsinized, suspended in full medium, stained for AnnexinV/PI and apoptosis was measured as described before. […]

The test system of data set [4] is melanoma cells. To be noted: 50 μg/ml, 24 h; cited from earlier work.
Data set [5] relates to TLR7 pathway. The data set can be described thus: TLR pathway activation: IRAK1 and IκB degradation by Western blot in OPM2 cells. Type of data set: cell-based. To be noted: OPM2 cells, 10, 20 or 40 μg/ml over night. How it is done:
Cells were lysed in lysis-IP-Buffer supplemented with protease inhibitors and sodium orthovanadate. 10 μg of lysate were separated by SDS-PAGE (10% polyacrylamide) and transferred to methanol activated Hypond-P PVDF-membranes (Amersham, Freiburg, Germany) by semi-dry blotting. Membranes were blocked in a 3% bovine serum albumin solution or 5% non fat dry milk solution in phosphate buffered saline (PBS) with 0.1% Tween 20 (PBT). Primary antibodies were applied in blocking solution for 1 h at room temperature or over night at 4° C. Membranes were washed in PBT and incubated with corresponding secondary antibodies in 5% non fat dry milk in PBT for 1 h at room temperature. Cells were washed with PBT, incubated with ECL solution and exposed in a Fluorchem 5500 (Biozym, Oldendorf, Germany).
OPM2 cells were suspended in full medium and cultured in 24-well plates at a cell density of 500.000 cells/ml and well. Cells were left untreated (control) or treated over night with different concentrations of Imiquimod® (10, 20 or 40 μg/ml).
OPM2 cells were cultured in 24-well plates as described above. Imiquimod® (40 μg/ml) was added to cells (except controls) for different time periods (2, 4, 6 and 8 h) and the extent of PARP1 cleavage, IRAK1, IkB-α and IkB-β degradation were determined by Western blot. α-Tubulin was used as a loading control.
A general note: Immunoblotting shows a protein as a band on a membrane.

For data set [6], the system named is OPM-2 cells xenograft. Type of data set: in vivo, NIH III-nude mice. How it is done: Average tumor diameter and mouse body weight was measured every 3rd day.
Treatment was started when tumors reached an average diameter of 0.8 cm and mice were sacrificed when the tumor reached an average diameter of 1.5 cm. A maximum volume of 150 μl of Imiquimod®, in a concentration of 2.5 mg/ml in H2O, was injected subcutaneously into the left flank of the mice. The same amount of H2O was injected in the same way into control mice. Tumor volume was calculated with the formula 4π/3×(width/2)2×(length/2).

For data set [7], the system named is peripheral blood mononuclear cells (PBMCs). As to the kind of experiment: Annexin V/PI apoptosis assay, PBMCs from healthy donors. To be noted: 40 μg/ml, 24 h. The format is cell-based, human. As to the method: PBMCs were prepared using separation via Ficoll density gradient centrifugation (Biochrom AG, Berlin, Germany) according to the protocol of the manufacturer.
as §1, §2

Data set [8] concerns Raji, Daudi, Ramos, Jurkat, C7H2 cell lines. As to the kind of experiment: Annexin V/PI apoptosis assay, non-multiple myeloma suspension cell lines. The format is cell-based. To be noted: 24 h. As to the method: as §1, §2
Data set [9] relates to MDA468, CHO, ONK2, MCF7, HeLa, Raji, Daudi, Ramos, C7H2 and Jurkat; adherent cell lines. As to the kind of experiment: Annexin V/PI apoptosis assay, non-MM and adherent cell lines. Type of data set: cell-based. As to the method: as §1, with “For the analysis of the pro-apoptotic activity of Imiquimod® in primary MM cells and non-malignant BMMCs, 5×10^5 cells BMMCs cells were treated with or without 40 μg/ml Imiquimod® for the indicated time periods. Cells were then harvested and washed twice with PBS. Detection of apoptotic cells was performed using the annexin V/PI assay according to manufacturers' instruction.” left out
as §3

With `CC(C)Cn1cnc2c(N)nc3ccccc3c21` [Imiquimod, 1-(2-methylpropyl)-1H-imidazo[4,5-c]quinolin-4-amine], the apoptotic cells in data set [1] is 17.3%; in data set [4], 15.8%. Further, in [2] (OPM2, LP-1, RPMI, U266, Imiquimod 20 μg/ml or Akti1/2 5 or 10 μM alone), the “apoptosis induction, single agent” value is given as “some apoptosis”. Besides, the “sensitivity (apoptosis)” value in data set [2] (OPM2, U266, LP1, NCI, 40 μg/ml) is “sensitive”; in [7] (CD4+ and CD8+ cells from 12 healthy donors), “nearly no sensitivity”; in data set [7] (CD19+ cells from 12 healthy donors), “only mildly affected”; in [8] (Raji and Jurkat, 40 μg/ml), “if at all only low sensitivity”; in [9] (set of adherent cell lines, 40 μg/ml, 24 h), “no significant or only minimal sensitivity”. Moreover, the apoptosis induction result in data set [3] is “no significant apoptosis induction”; in [8] (Raji, Daudi, Ramos, Jurkat, C7H2, 20 μg/ml) it was “apoptosis to some minor degree”. Further, the IRAK1 degradation result in data set [5] is given as “degraded in a concentration-dependent manner”. In addition, the IκB-α degradation entry in data set [5] is reported as “degraded in a concentration dependent manner”. The “changes in tumor volume” value in [6] (10 mg/kg s.c. twice daily) was “ranging from tumor regression and stagnation, via slower growth to increase in tumor volume comparable to controls”. Moreover, in [6] (10 mg/kg s.c. twice daily), the “histological analysis of tumors (haematoxylin and eosin)” value is reported as “regions of massive tissue destruction”. This compound returned a tumor regression in data set [6] (10 mg/kg s.c. twice daily) of 5 cases. In addition, the “weight development, treated versus control mice” value in data set [6] (10 mg/kg s.c. twice daily) is listed as “no difference”. In addition, the “survival of treated mice” value in data set [6] (10 mg/kg s.c. twice daily vs H2O, p=0.027, t-test) is on record as “significantly increased”. Moreover, the side effects entry in [6] (10 mg/kg s.c. twice daily, besides scars at the injection site) is on record as “no obvious side effects could be observed”. For the same compound, the “sensitivity to Imiquimod” value in data set [9] (MDA468, CHO, ONK2, MCF7, HeLa, Raji, Daudi, Ramos, C7H2 and Jurkat) was “no sensitivity”.
